The NIST ThermoML archive (doi:10.1021/je060271a)

Conditions: 303.15 K, Liquid, Vibrating tube method

CCCCC(=O)OCC(COC(=O)CCCC)(COC(=O)CCCC)COC(=O)CCCC [pentaerythritol tetrapentanoate]
Conditions	mass density [kg/m3]
751.89 kPa	1011.3
752.93 kPa	1011.3
753.46 kPa	1011.4
754.85 kPa	1011.5
756.07 kPa	1011.3
757.1 kPa	1011.2
758.15 kPa	1011.2
759.55 kPa	1011.4
760.59 kPa	1011.3
761.46 kPa	1011.3
762.5 kPa	1011.4
763.72 kPa	1011.3
764.76 kPa	1011.3
765.97 kPa	1011.4
767.19 kPa	1011.3
768.22 kPa	1011.4
769.27 kPa	1011.3
770.14 kPa	1011.4
771.18 kPa	1011.4
772.57 kPa	1011.4
773.96 kPa	1011.4
775 kPa	1011.3
776.04 kPa	1011.3
777.44 kPa	1011.4
778.31 kPa	1011.3
779.51 kPa	1011.4
781.59 kPa	1011.4
782.99 kPa	1011.3
784.03 kPa	1011.3
785.06 kPa	1011.2
786.46 kPa	1011.3
787.68 kPa	1011.4
788.72 kPa	1011.4
790.1 kPa	1011.3
793.58 kPa	1011.4
796.19 kPa	1011.4
797.22 kPa	1011.4
798.28 kPa	1011.4
799.66 kPa	1011.4
800.87 kPa	1011.4
802.26 kPa	1011.3
803.13 kPa	1011.3
804.36 kPa	1011.3
806.1 kPa	1011.3
807.3 kPa	1011.2
808.17 kPa	1011.4
809.57 kPa	1011.4
810.78 kPa	1011.4
811.81 kPa	1011.4
813.39 kPa	1011.4
814.44 kPa	1011.4
815.81 kPa	1011.4
816.86 kPa	1011.3
818.08 kPa	1011.4
819.64 kPa	1011.3
820.86 kPa	1011.4
822.25 kPa	1011.3
823.47 kPa	1011.4
824.68 kPa	1011.4
826.25 kPa	1011.3
827.28 kPa	1011.4
828.32 kPa	1011.4
830.07 kPa	1011.4
831.46 kPa	1011.3
832.68 kPa	1011.3
834.23 kPa	1011.4
835.46 kPa	1011.3
836.32 kPa	1011.3
837.71 kPa	1011.3
839.27 kPa	1011.4
840.67 kPa	1011.4
841.53 kPa	1011.4
843.1 kPa	1011.5
844.31 kPa	1011.4
846.05 kPa	1011.4
847.44 kPa	1011.4
848.82 kPa	1011.4
850.22 kPa	1011.5
851.43 kPa	1011.4
852.99 kPa	1011.3
854.55 kPa	1011.4
855.43 kPa	1011.3
856.64 kPa	1011.4
858.56 kPa	1011.4
859.94 kPa	1011.3
861.33 kPa	1011.4
862.89 kPa	1011.4
864.28 kPa	1011.4
865.5 kPa	1011.5
866.89 kPa	1011.3
868.64 kPa	1011.3
869.85 kPa	1011.3
871.4 kPa	1011.4
872.8 kPa	1011.3
874.36 kPa	1011.4
875.58 kPa	1011.4
877.31 kPa	1011.4
878.7 kPa	1011.3
880.09 kPa	1011.4
881.48 kPa	1011.3
882.37 kPa	1011.5
884.28 kPa	1011.4
885.67 kPa	1011.4
886.88 kPa	1011.4
888.45 kPa	1011.5
890 kPa	1011.4
891.23 kPa	1011.4
892.79 kPa	1011.4
894.35 kPa	1011.5
895.75 kPa	1011.3
897.31 kPa	1011.5
899.39 kPa	1011.5
900.97 kPa	1011.4
902.17 kPa	1011.4
903.4 kPa	1011.4
904.79 kPa	1011.4
906.87 kPa	1011.4
908.62 kPa	1011.4
910 kPa	1011.4
911.39 kPa	1011.4
913.13 kPa	1011.4
914.69 kPa	1011.5
916.25 kPa	1011.5
917.82 kPa	1011.4
919.55 kPa	1011.4
921.29 kPa	1011.4
922.68 kPa	1011.4
924.26 kPa	1011.5
925.81 kPa	1011.4
927.54 kPa	1011.6
929.11 kPa	1011.4
931.03 kPa	1011.4
932.76 kPa	1011.6
934.31 kPa	1011.4
936.05 kPa	1011.5
937.62 kPa	1011.4
939.53 kPa	1011.5
941.27 kPa	1011.5
943 kPa	1011.4
944.4 kPa	1011.5
946.13 kPa	1011.4
947.18 kPa	1011.5
949.26 kPa	1011.4
950.82 kPa	1011.4
952.73 kPa	1011.5
954.48 kPa	1011.5
956.38 kPa	1011.4
958.11 kPa	1011.4
960.21 kPa	1011.4
961.77 kPa	1011.5
963.32 kPa	1011.5
965.24 kPa	1011.4
967.49 kPa	1011.5
969.05 kPa	1011.5
970.44 kPa	1011.4
972.01 kPa	1011.5
974.27 kPa	1011.4
976.34 kPa	1011.4
977.92 kPa	1011.4
979.13 kPa	1011.6
981.39 kPa	1011.5
983.3 kPa	1011.5
985.21 kPa	1011.5
987.46 kPa	1011.4
989.21 kPa	1011.5
990.77 kPa	1011.5
992.34 kPa	1011.5
994.41 kPa	1011.4
996.16 kPa	1011.4
998.06 kPa	1011.5
1000.1 kPa	1011.3
1002.1 kPa	1011.3
1004.3 kPa	1011.4
1005.9 kPa	1011.4
1007.8 kPa	1011.4
1009.4 kPa	1011.5
1011.3 kPa	1011.5
1014 kPa	1011.5
1015.8 kPa	1011.5
1017.3 kPa	1011.5
1019.2 kPa	1011.5
1021.5 kPa	1011.4
1023.4 kPa	1011.5
1025.3 kPa	1011.5
1027.4 kPa	1011.6
1029.5 kPa	1011.5
1031.2 kPa	1011.6
1033.5 kPa	1011.5
1035.6 kPa	1011.5
1036.8 kPa	1011.4
1039.1 kPa	1011.5
1041.1 kPa	1011.6
1042.9 kPa	1011.6
1045 kPa	1011.5
1047.6 kPa	1011.6
1049.5 kPa	1011.5
1051.4 kPa	1011.4
1053.7 kPa	1011.5
1055.7 kPa	1011.5
1058 kPa	1011.5
1059.7 kPa	1011.5
1062.2 kPa	1011.5
1064.4 kPa	1011.5
1066.7 kPa	1011.6
1068.7 kPa	1011.5
1071 kPa	1011.5
1072.9 kPa	1011.6
1075.2 kPa	1011.5
1077.2 kPa	1011.5
1078.8 kPa	1011.5
1081.6 kPa	1011.5
1083.8 kPa	1011.5
1085.9 kPa	1011.5
1088 kPa	1011.6
1090.6 kPa	1011.6
1092.7 kPa	1011.6
1095 kPa	1011.5
1097.4 kPa	1011.5
1099.5 kPa	1011.5
1101.7 kPa	1011.5
1104 kPa	1011.6
1106.4 kPa	1011.5
1108.7 kPa	1011.5
1111.1 kPa	1011.5
1113.4 kPa	1011.5
1116 kPa	1011.5
1117.9 kPa	1011.5
1120.7 kPa	1011.6
1122.8 kPa	1011.6
1124.8 kPa	1011.5
1127.3 kPa	1011.5
1129.7 kPa	1011.5
1132.3 kPa	1011.6
1134.6 kPa	1011.7
1137.5 kPa	1011.5
1139.8 kPa	1011.6
1141.8 kPa	1011.5
1144.1 kPa	1011.7
1147.1 kPa	1011.4
1149.3 kPa	1011.6
1151.6 kPa	1011.6
1153.8 kPa	1011.5
1156.6 kPa	1011.6
1159 kPa	1011.6
1162.2 kPa	1011.6
1164.3 kPa	1011.8
1166.9 kPa	1011.6
1169.3 kPa	1011.6
1171.7 kPa	1011.7
1174.3 kPa	1011.6
1176.6 kPa	1011.5
1179.2 kPa	1011.6
1182 kPa	1011.6
1184.7 kPa	1011.6
1187.2 kPa	1011.7
1190.1 kPa	1011.7
1192.6 kPa	1011.7
1195.2 kPa	1011.6
1198.1 kPa	1011.6
1200.7 kPa	1011.6
1203.2 kPa	1011.6
1206.3 kPa	1011.6
1208.5 kPa	1011.6
1211.3 kPa	1011.6
1213.9 kPa	1011.6
1216.9 kPa	1011.7
1219.5 kPa	1011.7
1222.1 kPa	1011.6
1224.7 kPa	1011.7
1227.8 kPa	1011.7
1230.6 kPa	1011.7
1233.4 kPa	1011.6
1236.1 kPa	1011.6
1239.1 kPa	1011.7
1241.9 kPa	1011.6
1244.7 kPa	1011.6
1248 kPa	1011.6
1250.6 kPa	1011.7
1253.5 kPa	1011.6
1256.1 kPa	1011.6
1259.1 kPa	1011.6
1262 kPa	1011.6
1265 kPa	1011.7
1268.1 kPa	1011.6
1271 kPa	1011.6
1274 kPa	1011.7
1277 kPa	1011.6
1279.4 kPa	1011.6
1283 kPa	1011.7
1286 kPa	1011.7
1289.1 kPa	1011.6
1292.6 kPa	1011.7
1296 kPa	1011.7
1299.7 kPa	1011.6
1302.8 kPa	1011.7
1305.6 kPa	1011.7
1308.5 kPa	1011.6
1312.2 kPa	1011.7
1315 kPa	1011.8
1318.1 kPa	1011.7
1321.4 kPa	1011.7
1324.3 kPa	1011.7
1327.8 kPa	1011.6
1331.1 kPa	1011.7
1334.2 kPa	1011.8
1337.4 kPa	1011.6
1340.5 kPa	1011.6
1343.8 kPa	1011.7
1347.3 kPa	1011.8
1350.2 kPa	1011.7
1354.2 kPa	1011.7
1357.2 kPa	1011.6
1360.5 kPa	1011.7
1363.6 kPa	1011.7
1367.4 kPa	1011.7
1371.1 kPa	1011.7
1373.8 kPa	1011.7
1377.5 kPa	1011.7
1381.3 kPa	1011.8
1384.2 kPa	1011.7
